In assay [1] the target is T1, Corticotropin-releasing factor receptor 2/Corticotropin-releasing factor-binding protein (Homo sapiens, UniProt P24387+Q13324).
T1 sequence (Q13324 whole entry): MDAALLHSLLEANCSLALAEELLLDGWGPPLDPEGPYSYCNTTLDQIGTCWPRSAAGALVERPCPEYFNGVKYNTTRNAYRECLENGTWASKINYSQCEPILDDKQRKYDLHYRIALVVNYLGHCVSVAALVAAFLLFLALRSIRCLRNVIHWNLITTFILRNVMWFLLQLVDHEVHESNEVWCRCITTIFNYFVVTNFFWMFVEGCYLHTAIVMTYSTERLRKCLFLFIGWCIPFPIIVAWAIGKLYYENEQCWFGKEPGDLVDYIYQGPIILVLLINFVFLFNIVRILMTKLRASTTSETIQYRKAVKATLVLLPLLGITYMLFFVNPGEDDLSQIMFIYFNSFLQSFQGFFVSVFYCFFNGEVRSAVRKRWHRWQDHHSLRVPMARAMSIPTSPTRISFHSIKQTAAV
T1 sequence (P24387 whole entry): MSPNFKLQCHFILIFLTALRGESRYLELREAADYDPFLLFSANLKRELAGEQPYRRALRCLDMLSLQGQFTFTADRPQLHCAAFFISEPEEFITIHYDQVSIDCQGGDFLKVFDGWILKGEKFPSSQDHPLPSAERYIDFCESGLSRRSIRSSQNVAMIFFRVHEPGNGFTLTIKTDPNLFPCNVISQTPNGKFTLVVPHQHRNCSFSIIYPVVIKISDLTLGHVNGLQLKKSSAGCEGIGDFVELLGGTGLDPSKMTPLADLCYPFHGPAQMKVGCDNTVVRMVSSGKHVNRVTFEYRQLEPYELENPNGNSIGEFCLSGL
Briefly: Dose Response confirmation of uHTS hits for small molecule antagonists of the CRF-binding protein and CRF-R2 receptor complex. The class given is functional. The following applies: read-out: IC50_Mean.

The target of assay [2] is T1, Corticotropin-releasing factor receptor 2/Corticotropin-releasing factor-binding protein. Briefly: activators of CRF receptor 2 with binding protein – uHTS hits, confirmation (AID 602473). The following applies: read-out: EC50_Mean. The class given is functional.
Assay [3] in a line: non-specific 3'UTR reporter inhibition in Clone20-Shn3RL – cell-based, Renilla luciferase, cherry-picked, counter-screen for Shn3 inhibitor project, dose response (AID 624133). Type of assay: functional.
A short description of assay [4]: reduction of Shn3 3'UTR-driven luciferase in osteoblasts – cell-based, Clone20 osteoblasts, firefly luciferase, cherry-picked, dose response (AID 624132).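 Note: firefly luciferase luminescence from reporter carrying the Shn3 3'UTR in osteoblasts.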 The class given is functional.
Assay [5] concerns the target T2, Heat shock factor protein 1 (Mus musculus, UniProt P38532).
T2 sequence (P38532 whole entry): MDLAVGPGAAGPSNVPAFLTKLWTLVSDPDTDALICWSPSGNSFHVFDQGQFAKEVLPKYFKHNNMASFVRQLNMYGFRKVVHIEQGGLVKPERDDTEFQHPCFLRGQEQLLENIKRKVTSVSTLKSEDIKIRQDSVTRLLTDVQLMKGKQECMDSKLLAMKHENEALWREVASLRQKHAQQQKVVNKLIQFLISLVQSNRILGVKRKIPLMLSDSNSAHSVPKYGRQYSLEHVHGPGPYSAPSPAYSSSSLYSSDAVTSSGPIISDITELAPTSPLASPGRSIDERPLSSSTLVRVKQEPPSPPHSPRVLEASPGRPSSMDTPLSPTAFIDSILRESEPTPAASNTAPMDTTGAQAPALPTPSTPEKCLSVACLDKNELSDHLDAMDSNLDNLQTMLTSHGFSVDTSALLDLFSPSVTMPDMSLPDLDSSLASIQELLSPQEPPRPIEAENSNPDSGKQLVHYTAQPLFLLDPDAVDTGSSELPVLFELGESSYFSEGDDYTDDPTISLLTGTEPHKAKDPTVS
The assay can be described thus: enhancement of HSF1-driven luciferase signal – cell-based, NIH3T3, luminescence, dose retest, confirmation (AID 435004).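 Note: stress induced by proteasome inhibitor MG132 added 30 min after compound; luciferase reporter driven by HSF1 response element in NIH3T3 cells; actives raise luminescence as potentiators of the MG132 stress response.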 The class given is functional.

The target of a further assay is Large T antigen (Simian virus 40, UniProt P03070). The class given is functional, Betapolyomavirus macacae.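 Note: Confirmatory-stage PubChem screen for compounds that inhibit SV40 T antigen.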

The source made the active and inactive calls.

Results on twelve molecules are retold here after ChEMBL document CHEMBL1201862, “PubChem BioAssay data set” (2004).

Sequence of Large T antigen (P03070 whole entry): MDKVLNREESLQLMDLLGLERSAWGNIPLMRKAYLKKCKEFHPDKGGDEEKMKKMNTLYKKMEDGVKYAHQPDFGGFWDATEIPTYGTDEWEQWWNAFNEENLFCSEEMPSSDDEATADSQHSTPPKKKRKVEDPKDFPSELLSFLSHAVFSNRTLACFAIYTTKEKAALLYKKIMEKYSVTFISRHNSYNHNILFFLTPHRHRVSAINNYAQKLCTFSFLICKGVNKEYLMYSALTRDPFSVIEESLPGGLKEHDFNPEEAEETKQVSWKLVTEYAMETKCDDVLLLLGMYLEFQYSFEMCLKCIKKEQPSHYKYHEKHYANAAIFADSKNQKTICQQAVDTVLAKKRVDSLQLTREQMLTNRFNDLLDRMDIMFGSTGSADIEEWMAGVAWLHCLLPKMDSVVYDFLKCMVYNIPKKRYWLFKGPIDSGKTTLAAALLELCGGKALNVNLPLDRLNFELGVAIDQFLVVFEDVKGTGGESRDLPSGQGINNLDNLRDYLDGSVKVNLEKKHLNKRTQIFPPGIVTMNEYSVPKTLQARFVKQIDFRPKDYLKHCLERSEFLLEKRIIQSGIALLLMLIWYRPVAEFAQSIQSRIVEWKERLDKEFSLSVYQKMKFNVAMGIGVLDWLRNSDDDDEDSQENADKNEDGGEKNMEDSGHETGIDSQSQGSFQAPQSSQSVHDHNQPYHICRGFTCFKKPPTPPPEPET

Regarding `Cc1cccc(C(=O)N2CCc3ccccc3C2)c1[N+](=O)[O-]`, in assay [1], the IC50 was > 47.1 µM (inactive). The EC50 in assay [2] was > 53 µM (inactive).

In the case of `CCOC(=O)C(CC)/C(C)=N\NC(=O)c1cccc(C)c1` (centres undefined), in assay [1], the IC50 was > 47.1 µM (inactive). Further, the EC50 in assay [2] was > 53 µM (inactive).

Consider `N#Cc1ccc(S(=O)(=O)N2CCN(C(=O)[C@@H]3CCCN3C(=O)c3cccs3)CC2)cc1`, for which the IC50 in assay [1] is > 47.1 µM (inactive). Moreover, the EC50 in assay [2] was > 53 µM (inactive).

Take `COc1ccc(S(=O)(=O)N2CCN(c3cc(-c4ccccc4)nc4ncnn34)CC2)cc1`: the figures for the AC50 in assay [3] and in assay [4] were 1.6 µM (active) and 3.89 µM (active), respectively.

As for `CCc1nnc(NC(=O)CCC(=O)N2CCN(Cc3cc(Cl)ccc3OC)CC2)s1`, the IC50 in assay [1] was > 47.1 µM (inactive). The EC50 in assay [2] is > 53 µM (inactive).

For `COc1cccc(CNC(=O)CN(c2ccc(C(C)C)cc2)S(=O)(=O)c2c(C)noc2C)c1`, the IC50 in assay [1] was > 47.1 µM (inactive). In assay [2], the EC50 was > 53 µM (inactive).

In the case of `CC1C/C(=N\NC(=O)c2ccc([N+](=O)[O-])cc2)CC(C)(C)C1` (centres undefined), the IC50 in assay [1] is > 47.1 µM (inactive). The EC50 in assay [2] was > 53 µM (inactive).

For the molecule `Cc1nc2ccccc2nc(C)c1=NOCc1ccccc1Cl`, the IC50 in assay [1] is > 47.1 µM (inactive). The EC50 in assay [5] is > 260 µM (inactive); in assay [2], > 53 µM (inactive).

Consider `Cc1ccc2oc(=O)c(/C=C(\O)C(C)(C)C)nc2c1`, for which the IC50 at Large T antigen is 11 µM (active).

With `O=C(NCCO)c1nc(C(=O)c2ccc(Cl)cc2)c2ccccc2n1`, the IC50 in assay [1] is > 47.1 µM (inactive). For the same molecule, the EC50 in assay [2] was > 53 µM (inactive).

As to `Fc1ccc(C2c3cccn3CCN2C(S)=Nc2cccc(F)c2)cc1` (centres undefined), the IC50 in assay [1] was > 47.1 µM (inactive). The EC50 in assay [2] is > 53 µM (inactive).

With `CCCNC(=O)c1ccc(CN2CCc3ccccc3C2)cc1`, in assay [1], the IC50 was > 47.1 µM (inactive). The EC50 in assay [2] was > 53 µM (inactive).
